Test system: Balb/c female mice
Test: Transepidermal water loss in pups of mothers receiving SCFA in drinking water during pregnancy (TEWLmeter method)
Assay type: in vivo
Conditions: 200 mM in drinking water of pregnant mothers from day 1 of pregnancy; TEWL at day 3 after birth; vs regular drinking water; FIG. 1
Protocol: • Breeding pairs were set up with 1 Balb/c male and 2 Balb/c female mice. • From day 1 of pregnancy, female mice received 200 mM sodium acetate or sodium propionate ad libitum in drinking water. These doses correspond to 0.05-0.1 and 0.05-0.08 g/mouse/day, respectively. Control female mice received regular drinking water. • Cages were monitored from day 18-24 for litters. Regular drinking water was recommenced in the mothers as soon as pups were born. 6-7 pups per group were included in the experiment. • Transepidermal water loss was measured at day 3 after birth (baseline TEWL) by the TEWLmeter method and given in g·h^−1·m^−2.

SMILES	transepidermal water loss in offspring
CC(=O)[O-].[Na+] [acetate, sodium acetate]	significantly decreased
CCC(=O)[O-].[Na+] [propionate, sodium propionate]	significantly decreased

Source: US10751308B2, “Composition for preventing or reducing transepidermal water loss” (NESTEC S.A., priority 2016, dated 2020)
